According to ChEMBL document CHEMBL1159262, “Bioactive diterpenoids from Octocorallia, 2. Deoxyxeniolide B, a novel ichthyotoxic diterpenoid from the soft coral Xenia elongata” (J Nat Prod, 1995):

System: Oryzias latipes
Assay: Ichthyotoxicity against Oryzias latipes after 1 hr
Format: organism-based
Conditions: in vivo

Row | Compound | Activity | LC100 [ppm]
1 | C=C1CC[C@@H]2O[C@@]2(C)CC[C@@H]2/C(=C\CC=C(C)C)COC(=O)[C@@H]12 | Non-toxic | 
2 | C=C1CC/C=C(\C)CC[C@@H]2/C(=C\CC=C(C)C)COC(=O)[C@@H]12 [DEOXYXENIOLIDE B] |  | 15
3 | C=C1CC[C@@H]2O[C@@]2(C)CC[C@@H]2/C(=C\C=C\C(C)(C)O)COC(=O)[C@@H]12 | Non-toxic | 
